Activity calls are given as the source filed them.

Assay [1] deals with T1, Beta-adrenergic receptor kinase 1 (Homo sapiens, UniProt P25098).
T1 sequence (P25098 whole entry): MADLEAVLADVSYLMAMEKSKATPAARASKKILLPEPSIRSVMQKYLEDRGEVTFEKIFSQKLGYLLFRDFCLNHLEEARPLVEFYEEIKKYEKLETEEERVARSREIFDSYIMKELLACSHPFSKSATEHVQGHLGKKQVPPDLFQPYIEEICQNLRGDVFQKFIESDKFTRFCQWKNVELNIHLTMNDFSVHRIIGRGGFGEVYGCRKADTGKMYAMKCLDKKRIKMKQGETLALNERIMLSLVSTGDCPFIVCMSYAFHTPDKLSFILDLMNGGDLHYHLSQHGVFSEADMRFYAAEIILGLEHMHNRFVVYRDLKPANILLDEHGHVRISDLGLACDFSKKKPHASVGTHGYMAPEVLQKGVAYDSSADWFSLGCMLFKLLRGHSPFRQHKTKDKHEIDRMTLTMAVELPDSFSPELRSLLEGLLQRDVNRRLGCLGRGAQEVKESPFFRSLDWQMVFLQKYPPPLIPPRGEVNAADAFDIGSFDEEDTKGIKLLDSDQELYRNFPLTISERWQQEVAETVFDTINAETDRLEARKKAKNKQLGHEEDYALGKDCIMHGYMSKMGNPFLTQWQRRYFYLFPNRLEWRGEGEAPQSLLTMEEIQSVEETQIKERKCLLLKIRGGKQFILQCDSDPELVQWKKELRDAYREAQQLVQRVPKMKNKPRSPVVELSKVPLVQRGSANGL

In assay [2] the target is Cyclin-dependent kinase 3 (Homo sapiens, UniProt Q00526).
Assay [3] has as its target Cyclin-dependent kinase 4 (Homo sapiens, UniProt P11802).
Assay [4] addresses T2, Mitogen-activated protein kinase kinase kinase kinase 3 (Homo sapiens, UniProt Q8IVH8).
T2 sequence (Q8IVH8 whole entry): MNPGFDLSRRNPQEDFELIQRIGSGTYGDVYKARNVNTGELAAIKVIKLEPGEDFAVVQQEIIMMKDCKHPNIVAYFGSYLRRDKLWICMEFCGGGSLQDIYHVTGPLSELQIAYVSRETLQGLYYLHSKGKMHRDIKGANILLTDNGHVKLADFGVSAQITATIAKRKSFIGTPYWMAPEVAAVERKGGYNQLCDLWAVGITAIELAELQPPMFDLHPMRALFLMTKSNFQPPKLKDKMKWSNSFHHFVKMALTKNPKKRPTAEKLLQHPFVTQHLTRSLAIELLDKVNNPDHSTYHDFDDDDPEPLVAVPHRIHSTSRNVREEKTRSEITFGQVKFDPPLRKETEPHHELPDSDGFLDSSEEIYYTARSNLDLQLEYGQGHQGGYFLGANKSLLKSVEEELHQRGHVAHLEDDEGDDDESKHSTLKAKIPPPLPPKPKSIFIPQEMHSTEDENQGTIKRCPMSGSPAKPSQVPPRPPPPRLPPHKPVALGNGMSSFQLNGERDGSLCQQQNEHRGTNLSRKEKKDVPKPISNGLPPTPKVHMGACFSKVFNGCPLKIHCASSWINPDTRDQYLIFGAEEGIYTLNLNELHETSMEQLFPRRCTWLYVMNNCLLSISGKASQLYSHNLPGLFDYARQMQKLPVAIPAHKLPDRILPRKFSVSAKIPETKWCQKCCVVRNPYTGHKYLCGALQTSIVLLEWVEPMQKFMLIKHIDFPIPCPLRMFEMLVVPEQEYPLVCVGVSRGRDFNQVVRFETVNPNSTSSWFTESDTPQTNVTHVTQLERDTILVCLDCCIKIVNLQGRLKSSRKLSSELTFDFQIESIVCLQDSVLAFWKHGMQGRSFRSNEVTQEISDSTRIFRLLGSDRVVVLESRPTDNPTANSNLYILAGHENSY

For assay [5], the target named is Mitogen-activated protein kinase 7 (Homo sapiens, UniProt Q13164).
Assay [6] has as its target T3, Membrane-associated tyrosine- and threonine-specific cdc2-inhibitory kinase (Homo sapiens, UniProt Q99640).
T3 sequence (Q99640 whole entry): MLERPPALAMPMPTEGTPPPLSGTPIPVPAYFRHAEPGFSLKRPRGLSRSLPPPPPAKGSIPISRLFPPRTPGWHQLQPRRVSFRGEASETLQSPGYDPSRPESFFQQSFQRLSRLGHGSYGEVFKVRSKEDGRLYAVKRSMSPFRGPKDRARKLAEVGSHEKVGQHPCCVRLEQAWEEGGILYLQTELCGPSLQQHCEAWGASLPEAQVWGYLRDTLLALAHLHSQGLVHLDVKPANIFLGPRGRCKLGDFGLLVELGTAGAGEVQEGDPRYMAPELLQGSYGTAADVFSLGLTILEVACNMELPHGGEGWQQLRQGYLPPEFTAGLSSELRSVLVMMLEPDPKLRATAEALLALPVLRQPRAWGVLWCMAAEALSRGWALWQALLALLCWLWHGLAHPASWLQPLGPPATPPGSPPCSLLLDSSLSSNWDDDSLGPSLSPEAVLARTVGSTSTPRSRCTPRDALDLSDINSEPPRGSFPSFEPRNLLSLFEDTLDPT

For assay [7], the target named is cAMP-dependent protein kinase catalytic subunit gamma (Homo sapiens, UniProt P22612).
The target of assay [8] is Serine/threonine-protein kinase SIK3 (Homo sapiens, UniProt Q9Y2K2).
Note: in the data inactive means no Kd found up to 30 µM.

Chain of cAMP-dependent protein kinase catalytic subunit gamma (P22612 whole entry): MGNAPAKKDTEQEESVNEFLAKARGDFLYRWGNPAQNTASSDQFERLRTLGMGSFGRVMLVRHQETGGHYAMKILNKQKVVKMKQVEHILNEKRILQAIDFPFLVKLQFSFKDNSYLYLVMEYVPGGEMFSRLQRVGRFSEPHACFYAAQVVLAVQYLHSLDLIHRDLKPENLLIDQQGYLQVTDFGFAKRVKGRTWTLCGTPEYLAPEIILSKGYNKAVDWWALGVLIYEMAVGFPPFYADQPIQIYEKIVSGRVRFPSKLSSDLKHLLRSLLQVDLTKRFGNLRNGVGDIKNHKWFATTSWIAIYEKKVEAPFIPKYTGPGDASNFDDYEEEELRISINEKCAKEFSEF
Chain of Cyclin-dependent kinase 3 (Q00526 whole entry): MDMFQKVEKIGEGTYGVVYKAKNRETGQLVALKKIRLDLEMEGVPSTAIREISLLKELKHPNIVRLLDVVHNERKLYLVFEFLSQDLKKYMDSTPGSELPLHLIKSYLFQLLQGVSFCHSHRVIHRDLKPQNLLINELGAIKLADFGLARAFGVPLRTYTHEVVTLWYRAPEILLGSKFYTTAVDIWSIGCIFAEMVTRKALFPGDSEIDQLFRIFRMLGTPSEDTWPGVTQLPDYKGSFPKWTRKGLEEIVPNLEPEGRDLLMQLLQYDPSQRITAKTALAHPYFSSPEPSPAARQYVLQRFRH
Chain of Mitogen-activated protein kinase 7 (Q13164 whole entry): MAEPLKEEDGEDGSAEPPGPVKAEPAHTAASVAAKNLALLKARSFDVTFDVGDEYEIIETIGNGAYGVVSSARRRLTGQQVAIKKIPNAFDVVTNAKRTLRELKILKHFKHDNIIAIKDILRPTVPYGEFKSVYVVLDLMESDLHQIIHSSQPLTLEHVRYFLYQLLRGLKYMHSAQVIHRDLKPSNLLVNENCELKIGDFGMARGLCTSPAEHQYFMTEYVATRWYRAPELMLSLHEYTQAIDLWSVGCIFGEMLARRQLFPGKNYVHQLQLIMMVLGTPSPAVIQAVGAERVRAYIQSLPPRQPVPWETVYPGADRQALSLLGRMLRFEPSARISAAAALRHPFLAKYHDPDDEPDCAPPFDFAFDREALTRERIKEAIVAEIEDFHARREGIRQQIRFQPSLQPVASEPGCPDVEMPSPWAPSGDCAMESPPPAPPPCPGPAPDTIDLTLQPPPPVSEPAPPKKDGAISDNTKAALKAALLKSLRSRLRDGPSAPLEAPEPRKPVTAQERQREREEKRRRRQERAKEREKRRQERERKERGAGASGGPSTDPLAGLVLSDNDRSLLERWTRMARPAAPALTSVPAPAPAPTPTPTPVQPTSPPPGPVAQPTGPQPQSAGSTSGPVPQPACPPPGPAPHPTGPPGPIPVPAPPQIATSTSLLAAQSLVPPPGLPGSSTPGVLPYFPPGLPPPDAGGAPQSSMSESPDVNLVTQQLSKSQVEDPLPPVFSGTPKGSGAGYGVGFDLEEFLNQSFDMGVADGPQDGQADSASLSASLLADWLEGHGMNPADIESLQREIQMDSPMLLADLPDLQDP
Chain of Serine/threonine-protein kinase SIK3 (Q9Y2K2 whole entry): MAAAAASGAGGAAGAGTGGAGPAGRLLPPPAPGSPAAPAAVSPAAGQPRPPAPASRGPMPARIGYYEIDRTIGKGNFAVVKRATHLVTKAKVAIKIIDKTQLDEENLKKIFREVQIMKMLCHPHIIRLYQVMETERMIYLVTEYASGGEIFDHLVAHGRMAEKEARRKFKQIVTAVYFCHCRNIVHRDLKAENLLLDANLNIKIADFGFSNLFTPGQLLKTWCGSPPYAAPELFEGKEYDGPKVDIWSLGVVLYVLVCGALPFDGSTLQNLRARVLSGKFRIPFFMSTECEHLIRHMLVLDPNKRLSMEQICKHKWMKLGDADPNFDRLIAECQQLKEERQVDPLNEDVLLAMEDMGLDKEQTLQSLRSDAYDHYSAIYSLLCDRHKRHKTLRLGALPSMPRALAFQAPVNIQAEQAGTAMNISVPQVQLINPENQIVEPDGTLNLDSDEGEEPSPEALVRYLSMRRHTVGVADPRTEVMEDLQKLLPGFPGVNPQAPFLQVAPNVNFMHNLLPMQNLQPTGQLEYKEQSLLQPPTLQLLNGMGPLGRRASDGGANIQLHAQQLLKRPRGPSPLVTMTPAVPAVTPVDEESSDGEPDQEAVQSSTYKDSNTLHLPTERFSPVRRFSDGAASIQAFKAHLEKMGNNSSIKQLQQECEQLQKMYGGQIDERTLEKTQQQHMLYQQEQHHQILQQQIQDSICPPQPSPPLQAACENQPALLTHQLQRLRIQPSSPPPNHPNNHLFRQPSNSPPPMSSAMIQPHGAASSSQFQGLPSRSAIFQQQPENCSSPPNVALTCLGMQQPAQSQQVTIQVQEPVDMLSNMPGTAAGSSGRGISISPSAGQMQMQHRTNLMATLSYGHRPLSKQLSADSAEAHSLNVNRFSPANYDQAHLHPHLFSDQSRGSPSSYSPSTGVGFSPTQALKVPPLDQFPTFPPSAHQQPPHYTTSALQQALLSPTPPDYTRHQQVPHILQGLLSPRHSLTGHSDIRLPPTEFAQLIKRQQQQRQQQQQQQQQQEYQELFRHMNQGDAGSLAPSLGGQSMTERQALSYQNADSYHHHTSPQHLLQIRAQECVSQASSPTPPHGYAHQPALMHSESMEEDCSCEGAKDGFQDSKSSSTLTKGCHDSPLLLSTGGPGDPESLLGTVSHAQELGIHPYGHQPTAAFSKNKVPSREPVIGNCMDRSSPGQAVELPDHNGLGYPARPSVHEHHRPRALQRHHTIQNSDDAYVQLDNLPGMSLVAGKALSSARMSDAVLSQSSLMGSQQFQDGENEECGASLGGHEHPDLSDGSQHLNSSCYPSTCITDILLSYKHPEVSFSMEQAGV
Chain of Cyclin-dependent kinase 4 (P11802 whole entry): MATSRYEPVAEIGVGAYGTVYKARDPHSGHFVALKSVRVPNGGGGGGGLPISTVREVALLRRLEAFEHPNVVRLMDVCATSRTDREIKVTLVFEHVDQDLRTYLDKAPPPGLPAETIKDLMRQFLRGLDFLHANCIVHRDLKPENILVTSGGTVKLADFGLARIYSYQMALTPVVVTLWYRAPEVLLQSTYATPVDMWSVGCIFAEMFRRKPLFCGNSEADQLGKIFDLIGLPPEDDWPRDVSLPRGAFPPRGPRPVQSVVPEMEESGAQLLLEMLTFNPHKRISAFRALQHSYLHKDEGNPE

For the molecule `O=C1NC(=O)/C(=C/c2ccc3nccc(-c4ccncc4)c3c2)S1` [GSK-1059615], the Kd in assay [1], in assay [2], in assay [3], in assay [4], in assay [5] and in assay [6] was > 30 µM (inactive) throughout. For the same molecule, the Kd in assay [7] and in assay [8] was > 30 µM (inactive) each time.
`C[C@@H](Nc1cc(F)cc(F)c1)c1cc(C(=O)N(C)C)cc2c(=O)cc(N3CCOCC3)oc12` [AZD-8186]: the Kd in assay [1], in assay [2], in assay [3], in assay [4], in assay [5] and in assay [6] was > 30 µM (inactive) in each case. For the same molecule, the Kd in assay [7] and in assay [8] was > 30 µM (inactive) each time.
As to `Cc1c(F)cc(C(=O)NC2CC2)cc1-c1ccc(C(=O)NCC(C)(C)C)cn1` [LOSMAPIMOD], the Kd in assay [1], in assay [2], in assay [3], in assay [4], in assay [5] and in assay [6] was > 30 µM (inactive) in each case. Further, the dissociation constant (Kd) in assay [7] is 49.3 µM (active); in assay [8], > 30 µM (inactive).
Turning to `C=CC(=O)N1CCC(Oc2cc3c(Nc4ccc(Cl)c(Cl)c4F)ncnc3cc2OC)CC1` [POZIOTINIB], the Kd in assay [1], in assay [2], in assay [3], in assay [4], in assay [5] and in assay [6] was > 30 µM (inactive) in each case. The Kd in assay [7] and in assay [8] was > 30 µM (inactive) each time.
Regarding `Cc1cc2c(F)c(Oc3ncnn4cc(OC[C@@H](C)OC(=O)[C@H](C)N)c(C)c34)ccc2[nH]1` [BRIVANIB ALANINATE], the Kd in assay [1], in assay [2], in assay [3], in assay [4], in assay [5] and in assay [6] was > 30 µM (inactive) each time. The Kd in assay [7] and in assay [8] was > 30 µM (inactive) throughout.
For the molecule `C[C@@H]1CN(Cc2ccc(F)cc2)[C@@H](C)CN1C(=O)c1cc2c(C(=O)C(=O)N(C)C)cn(C)c2cc1Cl` [TALMAPIMOD], the Kd in assay [1], in assay [2], in assay [3], in assay [4], in assay [5] and in assay [6] was > 30 µM (inactive) in each case. In addition, the Kd in assay [7] and in assay [8] was > 30 µM (inactive) each time.
For `CN1CCC(COc2cnc(-c3cccc(Cn4nc(-c5cccc(C#N)c5)ccc4=O)c3)nc2)CC1` [TEPOTINIB], the Kd in assay [1], in assay [2], in assay [3], in assay [4], in assay [5] and in assay [6] was > 30 µM (inactive) each time. The Kd in assay [7] and in assay [8] was > 30 µM (inactive) each time.
As for `COc1cc2nccc(Oc3ccc(NC(=O)Nc4cc(C)on4)c(Cl)c3)c2cc1OC` [TIVOZANIB], the Kd in assay [1], in assay [2], in assay [3], in assay [4], in assay [5] and in assay [6] was > 30 µM (inactive) throughout. In addition, the Kd in assay [7] and in assay [8] was > 30 µM (inactive) each time.
Regarding `C[C@@H](c1ccc2nccn2c1)n1nnc2ncc(-c3cnn(C)c3)nc21` [SAVOLITINIB], the Kd in assay [1], in assay [2], in assay [3], in assay [4], in assay [5] and in assay [6] was > 30 µM (inactive) each time. Moreover, the Kd in assay [7] and in assay [8] was > 30 µM (inactive) each time.

These data come from ChEMBL document CHEMBL3991601, “The target landscape of clinical kinase drugs” (Science, 2017).
